How the values were obtained:
[1] = system: RTX-induced inflammation (edema) of the mouse ear; experiment: Resiniferatoxin (RTX) assay, mouse ear edema; assay type: in vivo; details: topical in acetone, 50 ug/ear Mactanamide with 0.1 ug RTX per ear, 30 minutes, left ear weight minus right ear (acetone) weight
Procedure: A control, acetone, was applied to all right ears. After a 30 minute incubation, the mice were sacrificed, the ears removed, and bores taken and weighed.
Edema was measured by subtracting the weight of the right ear (control) from the weight of the left ear. The results were recorded as % decrease (inhibition) or % increase (potentiation) in edema relative to the control group edema.

[2] = system: PMA-induced inflammation (edema) of the mouse ear; experiment: Inhibition of mouse ear edema (PMA mouse ear model); assay type: in vivo; details: topical in acetone, 25 ug/ear Mactanamide with 2 ug/ear PMA, 3 hours 20 minutes, left ear weight minus right ear (acetone) weight
Procedure: The efficacy of Mactanamide compounds as an anti-inflammatory agent was established by the following assay. Mactanamide was topically applied in acetone to the inside pinnae of the ears of mice in a solution comprising an edema-causing irritant, phorbol 12-myristate 13-acetate (PMA). Specifically, 2 μg/ear of PMA alone or in combination with 25 μg/ear of Mactanamide was applied to the left ears (5 mice per treatment group) and acetone was applied to all right ears. After 3 hours, 20 minutes incubation, the mice were sacrificed, the ears removed and bores taken and weighed. Edema was measured by subtracting the weight of the right ear (acetone control) from the weight of the left ear (treated). Results were recorded as % decrease (inhibition) or % increase (potentiation) in edema relative to the PMA control group edema.

CN1C(=O)C(Cc2c(O)cccc2O)NC(=O)C1Cc1ccccc1 (centres unmarked) [Mactanamide]
Edema (mg ± SEM) [1]: 0.9 ± 0.5 mg
Edema (mg ± SEM) [2]: 2.6 ± 1.1 mg

Reference: patent publication US20030171379A1, “Methods of treating, preventing, or inhibiting inflammation with Mactanamide compounds” (priority 2001, published 2003)
